Results taken from article PMC4621912, “Anticancer activity of MPT0G157, a derivative of indolylbenzenesulfonamide, inhibits tumor growth and angiogenesis” (Oncotarget, 2015).
Read-outs that look alike come from different tables or passages of the source.

Tests used:
HCT116 cells = test: SRB cell proliferation assay, HCT116; type: cell-based; settings: Homo sapiens, read-out: GI50, HCT116
Method: (§1) Results are shown as mean ± SEM from three independent experiments. […] Cells (1 × 10^4) in 100 μL of medium in 96-well plates were incubated with vehicle (control) or vehicle with test compound for 12 or 24 h. After various treatments, 1 mg/mL of MTT was added and the plates were incubated at 37°C for an additional 2 h, then the cells were pelleted and lysed in 100 μL of dimethyl sulfoxide, and the absorbance at 550 nm was measured on a microplate reader. Cell proliferation was measured by the SRB assay. Cells (1 × 10^4) were incubated for 48 h with the indicated concentrations of test compounds, then were fixed with 10% trichloroacetic acid, stained for 30 min with SRB (0.4% in 1% acetic acid), and washed repeatedly with 1% acetic acid. Protein-bound dye was dissolved in 10 mM Tris base solution and the optical density at 510 nm measured.

MDA-MB-231 cells = test: SRB cell proliferation assay, MDA-MB-231; type: cell-based; settings: Homo sapiens, read-out: GI50, MDA-MB-231
Method: as §1

A549 cells = test: SRB cell proliferation assay, A549; type: cell-based; settings: Homo sapiens, read-out: GI50, A549
Method: as §1

AsPC-1 cells = test: SRB cell proliferation assay, AsPC-1; type: cell-based; settings: Homo sapiens, read-out: GI50, AsPC-1
Method: as §1

[1] = SRB cell proliferation assay, normal bone marrow stromal cells HS-5; type: cell-based; settings: HS-5 normal bone marrow stromal cells, human normal bone marrow stromal cells
Method: as §1

recombinant HDAC1 = biological target: T1, recombinant HDAC1 (Homo sapiens, UniProt Q13547); test: Inhibition of recombinant HDAC enzyme activity (fluorogenic kit), HDAC1; type: biochemical; settings: mean ± SEM, read-out: IC50 HDAC1 (Class I)
T1 construct: purchased BPS Bioscience Corp
Description: (§2) Fluorogenic HDAC assay kits (BPS Bioscience Corp., San Diego, CA, USA) were used to assess the ability of HDAC inhibitors to inhibit deacetylation of lysine residues on the substrate by recombinant HDAC1, 2, 3, 4, 6, or 8 according to the manufacturer's instructions.

recombinant HDAC2 = biological target: T2, recombinant HDAC2 (Homo sapiens, UniProt Q92769); test: Inhibition of recombinant HDAC enzyme activity (fluorogenic kit), HDAC2; type: biochemical; settings: mean ± SEM, read-out: IC50 HDAC2 (Class I)
T2 construct: purchased BPS Bioscience Corp
Description: as §2

recombinant HDAC3 = biological target: T3, recombinant HDAC3 (Homo sapiens, UniProt O15379); test: Inhibition of recombinant HDAC enzyme activity (fluorogenic kit), HDAC3; type: biochemical; settings: mean ± SEM, read-out: IC50 HDAC3 (Class I)
T3 construct: purchased BPS Bioscience Corp
Description: as §2

recombinant HDAC8 = biological target: T4, recombinant HDAC8 (Homo sapiens, UniProt Q9BY41); test: Inhibition of recombinant HDAC enzyme activity (fluorogenic kit), HDAC8; type: biochemical; settings: mean ± SEM, read-out: IC50 HDAC8 (Class I)
T4 construct: purchased BPS Bioscience Corp
T4 sequence (Q9BY41 1-377): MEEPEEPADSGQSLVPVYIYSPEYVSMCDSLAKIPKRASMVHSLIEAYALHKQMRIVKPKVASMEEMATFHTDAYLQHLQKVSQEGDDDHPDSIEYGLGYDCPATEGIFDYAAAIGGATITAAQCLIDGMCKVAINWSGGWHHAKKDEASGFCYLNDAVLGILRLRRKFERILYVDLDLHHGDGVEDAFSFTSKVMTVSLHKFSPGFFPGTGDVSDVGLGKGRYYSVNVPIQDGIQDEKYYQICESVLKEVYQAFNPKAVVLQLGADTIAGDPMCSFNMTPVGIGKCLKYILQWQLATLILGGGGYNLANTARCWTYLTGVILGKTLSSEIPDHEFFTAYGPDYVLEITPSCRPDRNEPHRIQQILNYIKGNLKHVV
Description: as §2

recombinant HDAC4 = biological target: T5, recombinant HDAC4 (Homo sapiens, UniProt P56524); test: Inhibition of recombinant HDAC enzyme activity (fluorogenic kit), HDAC4; type: biochemical; settings: mean ± SEM, read-out: IC50 HDAC4 (Class IIa)
T5 construct: purchased BPS Bioscience Corp
Description: as §2

recombinant HDAC6 = biological target: T6, recombinant HDAC6 (Homo sapiens, UniProt Q9UBN7); test: Inhibition of recombinant HDAC enzyme activity (fluorogenic kit), HDAC6; type: biochemical; settings: mean ± SEM, read-out: IC50 HDAC6 (Class IIb)
T6 construct: purchased BPS Bioscience Corp
T6 sequence (Q9UBN7 1-1215): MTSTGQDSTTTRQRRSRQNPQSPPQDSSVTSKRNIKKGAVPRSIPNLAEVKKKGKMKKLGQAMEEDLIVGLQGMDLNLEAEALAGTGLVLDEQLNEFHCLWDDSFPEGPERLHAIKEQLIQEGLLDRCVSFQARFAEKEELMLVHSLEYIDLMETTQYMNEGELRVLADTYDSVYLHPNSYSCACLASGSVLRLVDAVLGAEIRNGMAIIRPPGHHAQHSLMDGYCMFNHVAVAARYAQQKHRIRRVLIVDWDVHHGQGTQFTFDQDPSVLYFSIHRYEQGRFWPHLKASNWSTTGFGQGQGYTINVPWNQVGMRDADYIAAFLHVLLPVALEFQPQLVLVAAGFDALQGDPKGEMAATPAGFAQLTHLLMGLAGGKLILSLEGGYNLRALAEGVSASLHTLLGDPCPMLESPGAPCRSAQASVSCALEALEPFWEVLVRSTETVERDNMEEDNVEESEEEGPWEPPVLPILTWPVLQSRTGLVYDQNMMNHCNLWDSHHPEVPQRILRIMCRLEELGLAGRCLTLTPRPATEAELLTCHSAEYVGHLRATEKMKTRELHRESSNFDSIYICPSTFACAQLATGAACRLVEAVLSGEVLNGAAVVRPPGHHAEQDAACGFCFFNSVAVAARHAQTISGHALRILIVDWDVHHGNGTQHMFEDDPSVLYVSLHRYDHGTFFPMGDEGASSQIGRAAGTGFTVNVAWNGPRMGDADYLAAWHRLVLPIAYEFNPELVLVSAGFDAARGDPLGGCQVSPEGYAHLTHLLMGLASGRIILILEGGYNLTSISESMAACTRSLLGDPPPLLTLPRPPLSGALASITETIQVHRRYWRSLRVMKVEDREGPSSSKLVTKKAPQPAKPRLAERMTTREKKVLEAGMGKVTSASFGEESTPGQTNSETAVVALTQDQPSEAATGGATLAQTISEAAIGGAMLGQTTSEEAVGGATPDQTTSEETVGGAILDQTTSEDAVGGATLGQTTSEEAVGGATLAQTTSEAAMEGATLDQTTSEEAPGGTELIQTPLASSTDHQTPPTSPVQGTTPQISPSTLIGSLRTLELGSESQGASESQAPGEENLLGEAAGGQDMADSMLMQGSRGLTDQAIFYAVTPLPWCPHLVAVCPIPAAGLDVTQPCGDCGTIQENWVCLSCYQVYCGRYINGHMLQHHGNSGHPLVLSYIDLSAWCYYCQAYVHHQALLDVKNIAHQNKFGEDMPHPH
Description: as §2

[2] = system: total HDAC activity in HCT116 cells; test: Total HDAC enzymatic activity assay in treated HCT116 cells; type: cell-based; settings: Homo sapiens, read-out: HDAC inhibitory IC50 in HCT116 cells (total HDAC enzyme activity)
Method: B. HCT116 cells (1 × 10^6) treated as explained in (A), whole-cell extracts were subjected to western blotting for the indicated proteins. Quantitative analysis of acetyl-histone H3 C. and acetyl-α-tubulin D. expression in western blot were determined by ImageQuant (Molecular Dynamics, USA). E. Immunohistochemical analysis of the HDAC1, 2 and 6 expression of a tissue microarray containing normal colon tissues and tumor tissue derived from patients with colon adenocarcinoma. Scale bars are indicated. […] Total cell lysates were collected and the total HDAC enzyme activity was analyzed using HDAC activity fluorometric assay kit (Cat No. K330–100; BioVision, Milpitax, CA, USA).

HCT116 xenograft tumor = test: HCT116 xenograft model; type: in vivo, nude mice; settings: 15 mg/kg
Method: Figure 5 The effect of MPT0G157 in HCT116 xenograft model Mice bearing established HCT116 tumors (~100 mm^3) were divided into three group (n = 5) and dosed as Materials and Methods. The tumor volumes A. and body weight B. of mice were measured. Results are mean ± SEM. **p < 0.01 versus control group.
HCT116 cells were implanted subcutaneously into four week old male nude mice. When the tumors reached the average volume of 100 mm^3, the mice were randomly divided into three groups (n = 5) and then were treated with the vehicle (1% carboxymethyl cellulose + 0.5% Tween 80, 0.2 mL/mouse), MPT0G157 (15 mg/kg) by intravenously injection five on two off in the first week and intraperitoneal injection in the other weeks. The length (L) and width (W) of the tumor were measured by caliper every 3 to 4 days, and the tumor volume was calculated as L × W^2/2.

[3] = system: matrigel-induced angiogenesis; test: In vivo matrigel plug angiogenesis assay; parameters: species or system nude mice; settings: 0.1 and 1 μM in matrigel, seven days, versus control group
Description: A. After seven days, the animals were sacrificed and the plugs were excised from the mice and photographed. Scale bar represents 0.5 cm. B. Sections of H&E, Masson's trichrome stained and CD31 stained matrigel plugs were examined by light microscopy under 200 × magnification. Scale bar = 100 μm. C. Quantification of the hemoglobin contents of matrigel plugs by spectrophotometer measured at 540 nm. Data represent the mean ± SEM. *p < 0.05 and ***p < 0.001 versus control group.
Six-week-old female nude mice were divided into four groups with three animals in each group. Mice were injected subcutaneously into the abdomens with matrigel (BD Bioscience) mixed with PBS or angiogenic factors (40 ng/ml) with/without MPT0G157 (0.1 μM and 1 μM). After seven days, the animals were sacrificed and the plugs were carefully dissected and photographed, the plugs were performed hematoxylin and eosin (H&E), Masson's trichrome stain and CD31 staining. To quantify the blood vessel formation, hemoglobin content was analyzed by Drabkin's reagent kit (Sigma Chemical, St. Louis, MO).

[4] = system: HIF-1α and VEGF expression in HCT116 cells; test: CoCl2-induced HIF-1α / VEGF expression in HCT116 cells (western blot, RT-PCR); type: cell-based, human; settings: 0.1 μM 24 h, then CoCl2 300 μM 4 h
Method: D. Cells were incubated as explained in (C), the levels of hypoxia-inducible factor-1α (HIF-1α), vascular endothelial growth factor (VEGF) mRNA were measured by RT-PCR.
Total RNA was isolated from cells using TRIzol reagent (Invitrogen). Single-strand cDNA for a polymerase chain reaction (PCR) template was synthesized from 5 μg of total RNA using random primers and Moloney murine leukemia virus reverse transcriptase (Promega). […] Equal amounts (1 μg) of each reverse-transcription product were PCR-amplified using Taq polymerase and 35 cycles of 1 min at 95°C, 1 min at 58°C, and 1 min at 72°C. The amplified cDNA was run on 1% agarose gels and visualized under UV light following staining with SYBR Safe DNA gel stain (Invitrogen).
Cells (1 × 10^6) were incubated for 10 min at 4°C in lysis buffer (20 mM HEPES, pH 7.4, 2 mM EGTA, 50 mM β-glycerophosphate, 0.1% Triton X-100, 10% glycerol, 1 mM DTT, 1 μg/mL of leupeptin, 5 μg/mL of aprotinin, 1 mM phenylmethylsulfonyl fluoride, and 1 mM sodium orthovanadate), were scraped off, incubated on ice for an additional10 min, and centrifuged at 17, 000 g for 30 min at 4°C. Protein samples (80 μg) were then electrophoresed on sodium dodecyl sulfate polyacrylamide gels (SDS-PAGE) and transferred onto a nitrocellulose membrane, which was then blocked by incubation for 30 min at room temperature with 5% fat-free milk in phosphate-buffered saline (PBS). Immunoblotting was performed by overnight incubation at 4°C with primary antibodies in PBS, followed by incubation for 1 h at room temperature with HRP-conjugated secondary antibodies. Bound antibodies were measured using ECL reagent (Advansta Corp., Menlo Park, CA, USA) and exposure to photographic film.

[5] = system: HDAC (HeLa nuclear extract); parameters: method as in PMID 25113875; settings: cited from earlier work
[6] = system: inflammatory factors NO, TNF-α, IL-6, PGE2; parameters: method as in PMID 25113875; settings: cited from earlier work

T5 sequence (P56524 627-1084 limits assumed): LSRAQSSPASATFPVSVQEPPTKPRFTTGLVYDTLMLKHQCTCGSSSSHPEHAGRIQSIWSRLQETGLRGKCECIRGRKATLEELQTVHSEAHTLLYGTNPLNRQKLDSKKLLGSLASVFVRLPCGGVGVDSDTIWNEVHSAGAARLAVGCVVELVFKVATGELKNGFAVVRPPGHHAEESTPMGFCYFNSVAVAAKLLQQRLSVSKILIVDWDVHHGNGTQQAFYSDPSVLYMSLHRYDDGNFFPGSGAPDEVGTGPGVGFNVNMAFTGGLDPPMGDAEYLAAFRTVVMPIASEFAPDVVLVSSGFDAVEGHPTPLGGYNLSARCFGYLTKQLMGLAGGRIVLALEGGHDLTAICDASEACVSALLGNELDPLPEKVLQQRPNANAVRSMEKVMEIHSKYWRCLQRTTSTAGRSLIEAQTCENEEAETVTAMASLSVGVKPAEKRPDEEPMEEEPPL
T1 sequence (Q13547 whole entry): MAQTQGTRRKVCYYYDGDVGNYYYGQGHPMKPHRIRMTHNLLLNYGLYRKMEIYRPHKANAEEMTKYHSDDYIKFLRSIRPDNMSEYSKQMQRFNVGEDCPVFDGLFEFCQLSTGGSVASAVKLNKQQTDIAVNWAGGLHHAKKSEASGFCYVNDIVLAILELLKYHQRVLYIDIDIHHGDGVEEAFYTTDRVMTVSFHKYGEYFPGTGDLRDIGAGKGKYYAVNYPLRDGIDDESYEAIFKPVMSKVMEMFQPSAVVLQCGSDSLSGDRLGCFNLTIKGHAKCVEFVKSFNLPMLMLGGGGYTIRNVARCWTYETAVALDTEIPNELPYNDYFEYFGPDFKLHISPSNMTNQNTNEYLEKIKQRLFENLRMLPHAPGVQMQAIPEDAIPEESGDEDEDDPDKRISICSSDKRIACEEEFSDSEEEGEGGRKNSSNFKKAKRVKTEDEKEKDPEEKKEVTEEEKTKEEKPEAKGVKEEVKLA
T2 sequence (Q92769 whole entry): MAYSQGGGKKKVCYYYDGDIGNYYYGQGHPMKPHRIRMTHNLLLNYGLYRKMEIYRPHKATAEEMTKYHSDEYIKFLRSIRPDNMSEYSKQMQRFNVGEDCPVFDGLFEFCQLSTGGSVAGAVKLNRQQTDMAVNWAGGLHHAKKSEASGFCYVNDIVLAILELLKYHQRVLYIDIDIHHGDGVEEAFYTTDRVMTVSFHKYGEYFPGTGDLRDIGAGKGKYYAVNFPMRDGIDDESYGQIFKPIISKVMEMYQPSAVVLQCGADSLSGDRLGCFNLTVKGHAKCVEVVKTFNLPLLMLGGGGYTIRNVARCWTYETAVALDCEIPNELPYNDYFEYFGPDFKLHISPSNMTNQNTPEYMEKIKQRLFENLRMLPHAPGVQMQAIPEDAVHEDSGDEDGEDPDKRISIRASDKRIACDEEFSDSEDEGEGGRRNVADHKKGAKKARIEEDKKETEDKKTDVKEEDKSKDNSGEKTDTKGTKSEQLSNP
T3 sequence (O15379 whole entry): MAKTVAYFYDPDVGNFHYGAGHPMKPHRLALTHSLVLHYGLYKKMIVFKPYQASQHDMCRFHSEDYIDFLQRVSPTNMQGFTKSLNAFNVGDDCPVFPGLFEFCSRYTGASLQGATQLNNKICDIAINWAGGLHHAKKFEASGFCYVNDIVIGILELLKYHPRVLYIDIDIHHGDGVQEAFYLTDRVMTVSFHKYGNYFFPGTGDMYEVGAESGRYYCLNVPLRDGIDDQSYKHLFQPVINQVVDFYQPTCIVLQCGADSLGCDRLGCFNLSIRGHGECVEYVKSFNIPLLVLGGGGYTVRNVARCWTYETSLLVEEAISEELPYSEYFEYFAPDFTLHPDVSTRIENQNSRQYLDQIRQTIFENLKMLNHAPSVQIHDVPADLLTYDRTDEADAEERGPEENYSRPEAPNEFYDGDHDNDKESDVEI
T3 sequence (Q9Y618 395-489 partner limits assumed): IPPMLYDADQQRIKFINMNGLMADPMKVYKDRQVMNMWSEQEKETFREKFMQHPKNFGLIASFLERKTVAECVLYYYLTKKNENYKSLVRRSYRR

Cc1[nH]c2ccccc2c1CCNS(=O)(=O)c1ccc(C=CC(=O)NO)cc1 [MPT0G157, N-hydroxy-3-{4-[2-(2-methyl-1H-indol-3-yl)-ethylsulfamoyl]-phenyl}-acrylamide]
GI50 (HCT116 cells; HCT-116, SRB assay, 48 h): 29 ± 2 nM
GI50 (MDA-MB-231 cells; MDA-MB-231, SRB assay, 48 h): 47 ± 7 nM
GI50 (A549 cells; A549, SRB assay, 48 h): 307 ± 36 nM
GI50 (AsPC-1 cells; ASPC1, SRB assay, 48 h): 103 ± 17 nM
GI50 at 48 h [1]: > 100000 nM
IC50 (recombinant HDAC1): 7.69 ± 1.84 nM
IC50 (recombinant HDAC2): 5.13 ± 0.67 nM
IC50 (recombinant HDAC3): 9.36 ± 0.7 nM
IC50 (recombinant HDAC8): > 1000 nM
IC50 (recombinant HDAC4): > 1000 nM
IC50 (recombinant HDAC6): 14.3 ± 0.77 nM
IC50 ([2]; HCT-116, HCT116 cells treated 24 h): 470 ± 140 nM
body weight loss during treatment (HCT116 xenograft tumor; HCT116 xenograft mice): no significant differences in weight loss
percent of tumor growth inhibition (TGI) (HCT116 xenograft tumor; i.v. first week then i.p., nude mice with HCT116 tumors): 50.7%
angiogenic response (hemoglobin content of matrigel plugs) [3]: significantly suppressed the angiogenic response
CoCl2-induced HIF-1α protein expression ([4]; HCT116): markedly inhibited
CoCl2-induced VEGF mRNA expression ([4]; HCT116, RT-PCR): markedly inhibited
HIF-1α mRNA levels ([4]; HCT116, RT-PCR): did not reduce
IC50 ([5]; HeLa nuclear extract as the HDAC source, read-out: IC50 for inhibition of HDAC activity): 2.8 ± 0.2 nM
HDAC inhibition, fold compared with PXD101 ([5]; compared with PXD101): 9.4 fold
suppression of inflammatory factor activities, fold compared with PXD101 [6]: 3.0–25.1 fold

O=C(/C=C/c1cccc(S(=O)(=O)Nc2ccccc2)c1)NO [PXD101, reference compound]
GI50 (HCT116 cells; HCT-116, 48 h): 90 ± 12 nM
GI50 (MDA-MB-231 cells; MDA-MB-231, 48 h): 241 ± 2 nM
GI50 (A549 cells; A549, 48 h): > 1000 nM
GI50 (AsPC-1 cells; ASPC1, 48 h): > 1000 nM
IC50 (recombinant HDAC4): 161 ± 2.36 nM
IC50 (recombinant HDAC6): 80.3 ± 8.69 nM
IC50 ([2]; HCT-116, 24 h): 10300 ± 2250 nM

O=C(CCCCCCC(=O)Nc1ccccc1)NO [SAHA]
GI50 (HCT116 cells; HCT-116, 48 h): 411 ± 37 nM
GI50 (MDA-MB-231 cells; MDA-MB-231, 48 h): 745 ± 43 nM
GI50 (A549 cells; A549, 48 h): > 1000 nM
GI50 (AsPC-1 cells; ASPC1, 48 h): > 1000 nM
